# Residue numbers refer to the chain shown, from its start.
# Assays:
# K2P2.1 (TREK-1) = biological target: T1, K2P2.1 (TREK-1) (Mus musculus, UniProt P97438); assay: Whole cell patch clamp of HEK-293T cells expressing K2P2.1 (TREK-1); assay type: cell-based, Murine
# T1 construct: expressed in transfected cells; host or cells: Xenopus oocytes (cRNA injection, pGEMHE/pMO)
# T1 sequence (P97438 1-411 isoform P97438-2): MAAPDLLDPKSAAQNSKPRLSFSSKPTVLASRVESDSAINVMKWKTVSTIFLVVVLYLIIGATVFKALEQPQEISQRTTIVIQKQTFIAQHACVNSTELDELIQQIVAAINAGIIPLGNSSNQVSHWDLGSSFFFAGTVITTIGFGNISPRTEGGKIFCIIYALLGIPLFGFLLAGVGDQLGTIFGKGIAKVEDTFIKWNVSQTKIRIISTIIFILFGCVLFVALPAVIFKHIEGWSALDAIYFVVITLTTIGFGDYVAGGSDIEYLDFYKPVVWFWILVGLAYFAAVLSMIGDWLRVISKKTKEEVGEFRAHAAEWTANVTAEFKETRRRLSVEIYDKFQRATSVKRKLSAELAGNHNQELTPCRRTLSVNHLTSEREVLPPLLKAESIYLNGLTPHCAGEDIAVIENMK
# Experimental: (§1) Murine K2P channels were cloned into pGEMHE/pMO {Bagriantsev, 2011}, IRES-GFP (Invitrogen), or pYES2-MET25 (high copy 2μ, URA3) {Minor, 1999} for expression in oocytes, HEK-293T cells, and yeast, respectively, using standard molecular biology procedures, and verified by DNA sequencing.
# Two-electrode voltage clamp recordings were performed from defolliculated stage V-VI Xenopus oocytes 24-48 hours after injection with 0.015-6.0 ng cRNA, using microelectrodes (0.3-3.0 MΩ) filled with 3M KCl. Data was acquired using the GeneClamp 500B (MDS Analytical Technologies) amplifier controlled by the pClamp software (Molecular Devices), and digitized at 1 kHz using Digidata 1332A (MDS Analytical Technologies). Recording solutions (mM): 2K (96 NaCl, 2 KCl, 1.8 CaCl2, 2 MgCl2), 90K (90 KCl, 8 NaCl, 1.8 CaCl2, 2 MgCl2), were buffered 5 mM HEPES pH 7.4. For K2P recordings, currents we elicited by a 1 second long ramp from −150 to +50 mV from a holding potential of −80 mV (2K), or −100 to +50 mV from a holding potential of 0 mV (90K). For KCNQ2 recordings, currents were elicited by a step protocol from −120 to 60 mV, in 20 mV increments, from a holding potential of −80 mV. Patch-clamp recordings from HEK-293T cells were performed using microelectrodes (2-3 MΩ) filled with 1M KCl. Data was acquired using the Axopatch 200B amplifier controlled by pClamp software, and digitized at 1 kHz using Digidata 1332A. Recording solutions (mM): intracellular (145 KCl, 5 EGTA, 3 MgCl2,) extracellular (150 NaCl, 5 KCl, 3 MgCl2, 1 CaCl2) were buffered with 5 mM HEPES pH 7.2 and 7.4, respectively. Currents were elicited by a 1 second long ramp from −150 to +50 mV from a holding potential of −80 mV. Data were fitted with a modified Hill's equation: I=Imin+(Imax−Imin)/(1+10^((Log EC50−Log [C])*H)), where Imax and Imin are maximal and minimal current values, respectively, EC50 is a half-maximal effective concentration of the compound, and H is the Hill coefficient.
# K2P2.1 (TREK-1) G137I = biological target: T2, K2P2.1 (TREK-1) G137I (Mus musculus, UniProt P97438, G152I); assay: Two-electrode voltage clamp, Xenopus oocytes, C-type gate mutant G137I; assay type: cell-based, Murine
# T2 construct: expressed in transfected cells; host or cells: Xenopus oocytes
# T2 sequence (P97438 1-411 isoform P97438-2 G137I): T1 sequence (P97438 1-411 isoform P97438-2) with G137I
# Experimental: I-V curves were measured by two-electrode voltage clamp of Xenopus oocytes in b, 90 mM [K^+]o. or c-e, 2 mM [K^+]o. […] Data (were measured at 20 mV (90 mM [K^+]o) or 0 mV (2 mM [K^+]o), normalized to basal channel activity, and fitted to the Hill equation. Error bars indicate s.e., n≧6, N≧2.
# as §1
# Two-electrode voltage clamp recordings were performed from defolliculated stage V-VI Xenopus oocytes 24-48 hours after injection with 0.015-6.0 ng cRNA, using microelectrodes (0.3-3.0 MΩ) filled with 3M KCl. Data was acquired using the GeneClamp 500B (MDS Analytical Technologies) amplifier controlled by the pClamp software (Molecular Devices), and digitized at 1 kHz using Digidata 1332A (MDS Analytical Technologies). Recording solutions (mM): 2K (96 NaCl, 2 KCl, 1.8 CaCl2, 2 MgCl2), 90K (90 KCl, 8 NaCl, 1.8 CaCl2, 2 MgCl2), were buffered 5 mM HEPES pH 7.4. For K2P recordings, currents we elicited by a 1 second long ramp from −150 to +50 mV from a holding potential of −80 mV (2K), or −100 to +50 mV from a holding potential of 0 mV (90K). […]
structure (smiles),measurement,setting,value
"CC1(C)c2cc(Cl)ccc2N(CCc2nnn[nH]2)c2ccc(Cl)cc21 [ML67-33, 2,7-dichloro-9,9-dimethyl-10-[2-(1H-tetrazol-5-yl)ethyl]acridine]",Emax (fold),"K2P2.1 (TREK-1); HEK-293T cells, whole cell patch clamp, at 100 μM per FIG. 4 legend",11.4±1.1 fold
same,EC50,"K2P2.1 (TREK-1); HEK-293T cells, whole cell patch clamp, marked * in Table 1",9.7 ± 1.2 µM
same,time of half-maximal activation (t1/2act),"K2P2.1 (TREK-1); whole-cell, HEK-293T, 0 mV",4.1 ± 0.5 s
same,time of return to baseline following washout (t1/2wash),"K2P2.1 (TREK-1); whole-cell, HEK-293T, 0 mV",3.9 ± 0.5 s
same,response to ML67-33 activation (in words),K2P2.1 (TREK-1) G137I,completely resistant
same,Emax (fold) at 150 μM,K2P2.1 (TREK-1) G137I; at 150 μM,0.9 ± 0.1 at 150 μM fold

# From US9862684B2, “Modulation of K2P channels” (The Regents of the University of California, priority 2013, dated 2018)
